Measurements from PubChem BioAssay (NCI).
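Exposure lasted 48 hours, with cells grown in 96-well plates and compounds tested at five concentrations. GI50 = concentration required for 50% inhibition of growth. TGI: concentration producing complete growth inhibition.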

Key:
Assay in all cases: inhibition of tumour cell growth, NCI panel, 48 h
786-0 renal = test system: 786-0 renal
A498 renal = test system: A498 renal
A549 NSCLC = test system: A549 NSCLC
ACHN renal = test system: ACHN renal
BT-549 breast = test system: BT-549 breast
CAKI-1 renal = test system: CAKI-1 renal
CCRF-CEM leukemia = test system: CCRF-CEM leukemia
COLO 205 colon = test system: COLO 205 colon
DU-145 prostate = test system: DU-145 prostate
EKVX NSCLC = test system: EKVX NSCLC
HCC-2998 colon = test system: HCC-2998 colon
HCT-116 colon = test system: HCT-116 colon
HCT-15 colon = test system: HCT-15 colon
HL-60(TB) leukemia = test system: HL-60(TB) leukemia
HOP-62 NSCLC = test system: HOP-62 NSCLC
HOP-92 NSCLC = test system: HOP-92 NSCLC
HS 578T breast = test system: HS 578T breast
HT29 colon = test system: HT29 colon
IGROV1 ovarian = test system: IGROV1 ovarian
K-562 leukemia = test system: K-562 leukemia
KM12 colon = test system: KM12 colon
LOX IMVI melanoma = test system: LOX IMVI melanoma
M14 melanoma = test system: M14 melanoma
MALME-3M melanoma = test system: MALME-3M melanoma
MCF7 breast = test system: MCF7 breast
MDA-MB-231 breast = test system: MDA-MB-231 breast
MDA-MB-435 = test system: MDA-MB-435
MOLT-4 leukemia = test system: MOLT-4 leukemia
NCI-H226 lung = test system: NCI-H226 lung
NCI-H23 lung = test system: NCI-H23 lung
NCI-H460 lung = test system: NCI-H460 lung
NCI-H522 lung = test system: NCI-H522 lung
NCI/ADR-RES ovarian = test system: NCI/ADR-RES ovarian
OVCAR-3 ovarian = test system: OVCAR-3 ovarian
OVCAR-4 ovarian = test system: OVCAR-4 ovarian
OVCAR-5 ovarian = test system: OVCAR-5 ovarian
OVCAR-8 ovarian = test system: OVCAR-8 ovarian
PC-3 prostate = test system: PC-3 prostate
RPMI-8226 leukemia = test system: RPMI-8226 leukemia
RXF 393 renal = test system: RXF 393 renal
SF-268 CNS = test system: SF-268 CNS
SF-295 CNS = test system: SF-295 CNS
SF-539 CNS = test system: SF-539 CNS
SK-MEL-2 melanoma = test system: SK-MEL-2 melanoma
SK-MEL-28 melanoma = test system: SK-MEL-28 melanoma
SK-MEL-5 melanoma = test system: SK-MEL-5 melanoma
SK-OV-3 ovarian = test system: SK-OV-3 ovarian
SN12C renal = test system: SN12C renal
SNB-19 CNS = test system: SNB-19 CNS
SNB-75 CNS = test system: SNB-75 CNS
SR leukemia = test system: SR leukemia
SW-620 colon = test system: SW-620 colon
T-47D breast = test system: T-47D breast
TK-10 renal = test system: TK-10 renal
U251 CNS = test system: U251 CNS
UACC-257 melanoma = test system: UACC-257 melanoma
UACC-62 melanoma = test system: UACC-62 melanoma
UO-31 renal = test system: UO-31 renal

Molecule O=C(Nc1cccnc1)c1cccc([N+](=O)[O-])c1 has a GI50 (786-0 renal) greater than 100 µM, a TGI (786-0 renal) greater than 100 µM and a GI50 (A498 renal) greater than 100 µM. For the same molecule, the TGI (A498 renal) was greater than 100 µM, the GI50 (A549 NSCLC) was greater than 100 µM and the TGI (A549 NSCLC) was greater than 100 µM. The GI50 (ACHN renal) was greater than 100 µM, the TGI (ACHN renal) was greater than 100 µM and the GI50 (BT-549 breast) was greater than 100 µM. It also gave a TGI (BT-549 breast) greater than 100 µM, a GI50 (CAKI-1 renal) greater than 100 µM and a TGI (CAKI-1 renal) greater than 100 µM. For the same molecule, the GI50 (CCRF-CEM leukemia) was greater than 100 µM, the TGI (CCRF-CEM leukemia) was greater than 100 µM and the GI50 (COLO 205 colon) was greater than 100 µM. It also gave a TGI (COLO 205 colon) greater than 100 µM, a GI50 (DU-145 prostate) greater than 100 µM and a TGI (DU-145 prostate) greater than 100 µM. It also gave a GI50 (EKVX NSCLC) greater than 100 µM, a TGI (EKVX NSCLC) greater than 100 µM and a GI50 (HCC-2998 colon) greater than 100 µM. For the same molecule, the TGI (HCC-2998 colon) was greater than 100 µM, the GI50 (HCT-116 colon) was greater than 100 µM and the TGI (HCT-116 colon) was greater than 100 µM. It also gave a GI50 (HCT-15 colon) greater than 100 µM, a TGI (HCT-15 colon) greater than 100 µM and a GI50 (HL-60(TB) leukemia) greater than 100 µM. For the same molecule, the TGI (HL-60(TB) leukemia) was greater than 100 µM, the GI50 (HOP-62 NSCLC) was greater than 100 µM and the TGI (HOP-62 NSCLC) was greater than 100 µM. It also gave a GI50 (HOP-92 NSCLC) greater than 100 µM, a TGI (HOP-92 NSCLC) greater than 100 µM and a GI50 (HS 578T breast) greater than 100 µM. It also gave a TGI (HS 578T breast) greater than 100 µM, a GI50 (HT29 colon) greater than 100 µM and a TGI (HT29 colon) greater than 100 µM. The GI50 (IGROV1 ovarian) was greater than 100 µM, the TGI (IGROV1 ovarian) was greater than 100 µM and the GI50 (K-562 leukemia) was greater than 100 µM. The TGI (K-562 leukemia) was greater than 100 µM, the GI50 (KM12 colon) was greater than 100 µM and the TGI (KM12 colon) was greater than 100 µM. The GI50 (LOX IMVI melanoma) was greater than 100 µM, the TGI (LOX IMVI melanoma) was greater than 100 µM and the GI50 (M14 melanoma) was greater than 100 µM. It also gave a TGI (M14 melanoma) greater than 100 µM, a GI50 (MALME-3M melanoma) greater than 100 µM and a TGI (MALME-3M melanoma) greater than 100 µM. For the same molecule, the GI50 (MCF7 breast) was greater than 100 µM, the TGI (MCF7 breast) was greater than 100 µM and the GI50 (MDA-MB-231 breast) was greater than 100 µM. The TGI (MDA-MB-231 breast) was greater than 100 µM, the GI50 (MDA-MB-435) was greater than 100 µM and the TGI (MDA-MB-435) was greater than 100 µM. It also gave a GI50 (MOLT-4 leukemia) greater than 100 µM, a TGI (MOLT-4 leukemia) greater than 100 µM and a GI50 (NCI-H226 lung) greater than 100 µM. It also gave a TGI (NCI-H226 lung) greater than 100 µM, a GI50 (NCI-H23 lung) greater than 100 µM and a TGI (NCI-H23 lung) greater than 100 µM. It also gave a GI50 (NCI-H460 lung) greater than 100 µM, a TGI (NCI-H460 lung) greater than 100 µM and a GI50 (NCI-H522 lung) greater than 100 µM. The TGI (NCI-H522 lung) was greater than 100 µM, the GI50 (NCI/ADR-RES ovarian) was greater than 100 µM and the TGI (NCI/ADR-RES ovarian) was greater than 100 µM. The GI50 (OVCAR-3 ovarian) was greater than 100 µM, the TGI (OVCAR-3 ovarian) was greater than 100 µM and the GI50 (OVCAR-4 ovarian) was greater than 100 µM. It also gave a TGI (OVCAR-4 ovarian) greater than 100 µM, a GI50 (OVCAR-5 ovarian) greater than 100 µM and a TGI (OVCAR-5 ovarian) greater than 100 µM. For the same molecule, the GI50 (OVCAR-8 ovarian) was greater than 100 µM, the TGI (OVCAR-8 ovarian) was greater than 100 µM and the GI50 (PC-3 prostate) was greater than 100 µM. It also gave a TGI (PC-3 prostate) greater than 100 µM, a GI50 (RPMI-8226 leukemia) greater than 100 µM and a TGI (RPMI-8226 leukemia) greater than 100 µM. The GI50 (RXF 393 renal) was greater than 100 µM, the TGI (RXF 393 renal) was greater than 100 µM and the GI50 (SF-268 CNS) was greater than 100 µM. The TGI (SF-268 CNS) was greater than 100 µM, the GI50 (SF-295 CNS) was greater than 100 µM and the TGI (SF-295 CNS) was greater than 100 µM. The GI50 (SF-539 CNS) was greater than 100 µM, the TGI (SF-539 CNS) was greater than 100 µM and the GI50 (SK-MEL-2 melanoma) was greater than 100 µM. For the same molecule, the TGI (SK-MEL-2 melanoma) was greater than 100 µM, the GI50 (SK-MEL-28 melanoma) was greater than 100 µM and the TGI (SK-MEL-28 melanoma) was greater than 100 µM. It also gave a GI50 (SK-MEL-5 melanoma) greater than 100 µM, a TGI (SK-MEL-5 melanoma) greater than 100 µM and a GI50 (SK-OV-3 ovarian) greater than 100 µM. It also gave a TGI (SK-OV-3 ovarian) greater than 100 µM, a GI50 (SN12C renal) greater than 100 µM and a TGI (SN12C renal) greater than 100 µM. For the same molecule, the GI50 (SNB-19 CNS) was greater than 100 µM, the TGI (SNB-19 CNS) was greater than 100 µM and the GI50 (SNB-75 CNS) was greater than 100 µM. The TGI (SNB-75 CNS) was greater than 100 µM, the GI50 (SR leukemia) was greater than 100 µM and the TGI (SR leukemia) was greater than 100 µM. It also gave a GI50 (SW-620 colon) greater than 100 µM, a TGI (SW-620 colon) greater than 100 µM and a GI50 (T-47D breast) greater than 100 µM. It also gave a TGI (T-47D breast) greater than 100 µM, a GI50 (TK-10 renal) greater than 100 µM and a TGI (TK-10 renal) greater than 100 µM. The GI50 (U251 CNS) was greater than 100 µM, the TGI (U251 CNS) was greater than 100 µM and the GI50 (UACC-257 melanoma) was greater than 100 µM. For the same molecule, the TGI (UACC-257 melanoma) was greater than 100 µM, the GI50 (UACC-62 melanoma) was greater than 100 µM and the TGI (UACC-62 melanoma) was greater than 100 µM. For the same molecule, the GI50 (UO-31 renal) was greater than 100 µM and the TGI (UO-31 renal) was greater than 100 µM.
